Key:
[1] = parameters: species or system rhesus monkeys (Macaca mulatta); conditions: rhesus monkey, in vivo, 2.2 mg/kg/day
Description: Study 1. Lutein and Zeaxanthin Supplementation Study. Eighteen rhesus monkeys (Macaca mulatta) were reared on one of two semipurified diets, both of which contained adequate levels of all known nutrients, but no detectable xanthophylls as analyzed by our laboratory. The animals also received limited amounts of very low xanthophyll foods such as wheat or rice cereals, white rice, sweetened drinks and gelatin, pineapple and banana.
Beginning at 7-16 years of age, 6 of these monkeys were supplemented with pure lutein and 6 with pure zeaxanthin, at 3.9 μmol/kg/day (2.2 mg/kg/day). The lutein and zeaxanthin supplements were purified or synthesized by DSM Nutritional Products, Ltd. The supplements were inserted into marshmallows, sweetened gelatin or small pieces of fruit. Beadlets and individual supplement doses were stored at 4° C. in the dark. […]
Biopsy punches were used to dissect the central retina, containing the macula, into a 4 mm diameter circle centered on the fovea. Retinal tissue was analyzed for carotenoids as described previously (1). Cerebellum and occipital cortex samples were collected and analyzed for carotenoids as described by Park et al. (2). […]
Relationships between retina and brain tissue were evaluated using Pearson's correlation coefficients. For those relationships with sample size >6, p values were calculated.

[2] = elderly population of healthy 65 year olds; cited from earlier work
cognitive function = conditions: healthy older adults, intervention trial (Johnson et al. 2008); cited from earlier work

Structure (SMILES)	Carotenoids found in brain tissue [1]	Average plasma level [2] [µM]	Effect of supplementation on cognitive function (cognitive function)
CC1=C[C@H](O)CC(C)(C)[C@H]1/C=C/C(C)=C/C=C/C(C)=C/C=C/C=C(C)/C=C/C=C(C)/C=C/C1=C(C)C[C@@H](O)CC1(C)C [Lutein]	the only carotenoid measured in brain tissue	0.27 ± 0.15	improve cognitive function
CC1=C(/C=C/C(C)=C/C=C/C(C)=C/C=C/C=C(C)/C=C/C=C(C)/C=C/C2=C(C)C[C@@H](O)CC2(C)C)C(C)(C)C[C@H](O)C1 [Zeaxanthin]	the only carotenoid measured in brain tissue	0.032 ± 0.021	

From patent publication US20110105855A1, “EARLY DETECTION OF COGNITION IMPAIRMENT IN ELDERLY POPULATION” (TRUSTEES OF TUFTS COLLEGE, priority 2009, published 2011)
